Patent US12565665B2, “Compositions and methods for controlled mRNA translation and stability” (TRUSTEES OF BOSTON UNIVERSITY, priority 2022, dated 2026)

How the values were obtained:
[1] = target: AlfaNb; settings: cited from earlier work
[2] = tested on: Bcl-xL; experiment: Drug response titration of Bad-BclxL iADAR system using A-1331852; assay type: cell-based, human; settings: ADAR-Bad-BclxL variant with point mutation F121L, drug added at transfection
[3] = tested on: AUA reporter; experiment: Creation of a START codon (AUA to AUI), EGFPd2/dTomato reporter, flow cytometry; assay type: cell-based, human; settings: 48 hours post-transfection, n=3
Source text: To test this, an ADAR substrate was designed composed of a dsRNA hairpin containing both an AUA-codon with a mismatch at the second adenine to promote specific deamination to AUI (as opposed to IUA or IUI) and an MS2 operator motif (see e.g., FIG. 26b). The design of one large dsRNA hairpin was chosen to promote correct folding of RNA secondary structures. Previous studies have shown that MS2 operators in the 5′UTR of eukaryotic mRNA can lead to decreased translational efficiency when co-expressed with its corresponding coat protein (MS2 coat protein, or MCP), so high and low affinity variants of the MS2 operator (called here MS2-C and MS2-A respectively for the base at the stem loop) were tested with the idea that the lower affinity MS2-A loop would be less likely to inhibit translation by coat protein alone. As positive controls, the same loops were also designed with the correct AUG start codon.
These designs were cloned into pcDNA3 vectors containing a bidirectional CMV promoter driving constitutive dTomato and EGFPd2 (see e.g., FIG. 26c). The S′UTR and start codon of EGFPd2 were replaced with the editable start codon designs so the translational efficiency could be measured by looking at the EGFPd2 fluorescence relative to dTomato when co-expressed with MCP-ADAR. In this construct, if the correct start codon is skipped, the next AUG codon leads to a short, out of frame translation product.
HEK293FT cells were co-transfected with each of the reporter constructs (MS2-C w/ AUG start, MS2-C w/ AUA start, MS2-A w/ AUG start, and MS2-A w/ AUA start) and either filler DNA, inactivated ADAR2-DD (E396A) fused to MCP (MCP-dADAR), or active ADAR2-DD (E488Q) fused to MCP (MCP-ADAR). 48 hours post-transfection, cells were lifted and analyzed by flow cytometry. Transfected cells were gated by dTomato, and the median EGFPd2-to-dTomato ratio for the population was calculated per replicate (n=3) by FLOWJO. 2-Way ANOVA was performed to determine significance.

[4] = tested on: GFP-GPI reporter; experiment: AUA to AUI editing creating upstream in-frame signal sequence and HA tag, live imaging and HA staining; assay type: cell-based, human
Source text: To test this, a reporter construct was designed that contained: an MS2-A editable AUA start codon upstream of the murine IgGκ signal sequence and HA epitope tag (SS-HA), an in frame AUG start codon, GFP, and the glycosylphosphatidylinositol (GPI) anchor sequence from Thymocyte differentiation antigen 1 (GPI in diagram) (see e.g., FIG. 27a). With this reporter, in the absence of editing, the majority of the translated product will be from the AUG codon directly upstream of GFP. This will lead to the translation product residing in the cytoplasm with a non-functional GPI anchor (as this post-translational modification (PTM) must occur in the endoplasmic reticulum (ER) lumen). Upon ADAR editing of the upstream AUA to AUI, translation will initiate upstream of the signal sequence, leading to co-translational translocation of HA-GFP-GPI into the ER lumen, the addition of the GPI anchor PTM, and presentation of HA-GFP on the plasma membrane (see e.g., FIG. 27b). With this construct, the editing can be monitored by either by microscopy (looking for ER & plasma membrane localization) or directly by immunostaining for the HA-tag.
HEK cells were co-transfected with the GFP-GPI reporter and either filler DNA, MCP-dADAR, or MCP-ADAR. A GFP-GPI with a functional start codon before the secretion signal was also transfected as a positive control (GFP-GPI Control). One day after transfection, HEK cells were imaged live, and then fixed and stained for HA tag with a primary anti-HA antibody and a secondary antibody that was conjugated to ALEXAFLUOR 647 (AF647).

[5] = tested on: UAG-MS2 editing reporter; experiment: Stop codon editing reporter (mCherry / mNeonGreen) co-transfected with ADAR variants, fluorescence microscopy / ImageJ quantification; assay type: cell-based, human; settings: HEK 293 FT cells co-transfected with reporter containing 2 UAG stop codons in the hairpin; two days after transfection
[6] = tested on: UAG-MS2 editing reporter; experiment: Stop codon editing reporter (mCherry / mNeonGreen) co-transfected with ADAR variants, flow cytometry (median mNeonGreen to mCherry); assay type: cell-based, human; settings: n=1
Source text: For the reporter system, the inventors used the fluorescent protein-epitope tag tandem fusions of mCherry-FLAG and HA-mNeonGreen as the upstream and downstream coding regions. Without DD editing activity, translation is terminated after mCherry-FLAG. Coexpression with MCP-ADAR2-DD was hypothesized to lead to binding of MCP-DD, stop codon UAG editing to UIG, and expression of mNeonGreen (FIG. 1B).
HEK 293 FT cells were co-transfected with plasmids expressing the reporter containing 2 UAG stop codons in the hairpin and a pcDNA3 construct encoding a fusion protein composed of MCP, ADAR2-DD (E488Q), and TagBFP.
Two days later, fluorescence microscopy images were taken of the cell populations. […] The inventors repeated the experiment and analyzed the samples by flow-cytometry.
The inventors transiently co-transfected HEK 293 FT cells with the mCherry-mNeonGreen reporter, MCP-ADAR2-DD variants containing different configurations of ALFA-tag insertions and NbALFA fusions, and uncaging constructs containing miRFP670 fused to ALFA. Without wishing to be bound by theory, it was hypothesized that the intramolecular interaction would inhibit the ADAR2-DD, but that the ALFA tag on the miRFP670 would displace the lower strength ALFA variants (PE and 78), and perhaps at high enough concentrations displace the intramolecular ALFA, and lead to increased editing.
The inventors then made an ADAR-DD variant with an inserted TEV protease cut site (amino acids ENLYFQG, SEQ ID NO: 286) between the C-terminus of ADAR2-DD and the N-terminus of SpyCatcher (FIG. 5C). The inventors co-transfected HEK 293 FT cells with the reporter construct, the ADAR-DD TEVcs variant, and the TEV protease and 48 hours later analyzed the transfected cells via flow cytometry (FIG. 5D-5E).
Mutated versions were then cloned and co-transfected with an editing reporter in the absence and presence of A-1331852, and absolute background and fold change upon drug addition were determined by flow cytometry (see e.g., FIG. 22d and table 11).

[7] = tested on: editable AUG reporters; experiment: Destruction of an AUG start codon to IUG, EGFPd2/dTomato reporter, flow cytometry; assay type: cell-based, human; settings: 48 hours post-transfection; n=3
Source text: To test this, an ADAR substrate was designed similar to the substrates tested above, but with an AUG codon in a dsRNA hairpin with a mismatch to promote the deamination of the correct adenine (see e.g., FIG. 28b). This scheme was similarly tested with both the high affinity MS2-C and lower affinity MS2-A variants by cloning these substrates into a pcDNA3 vector with a bidirectional CMV driving the expression of dTomato and EGFPd2 (see e.g., FIG. 28c).
HEK cells were co-transfected with the two different reporter constructs (MS2-C and MS2-A) and cither filler DNA, MCP-dADAR, or MCP-ADAR. 48 hours post-transfection, cells were lifted and analyzed by flow cytometry. Transfected cells were gated by dTomato, and the median EGFPd2-to-dTomato ratio for the population was calculated per replicate (n=3) by FLOWJO. 2-Way ANOVA was performed to determine significance.

[8] = tested on: 4×UAG MS2 reporter; experiment: 4×UAG MS2 reporter co-transfected with iADAR variants, flow cytometry; assay type: cell-based, human; settings: 48 hours, n=3
Method: HEK293FT cells were co-transfected with the dual-input iADAR, the 4×UAG-MS2 reporter, and either EGFP(R96M) or EGFP(R96M)-AlfaTag on day 0. At the time of transfection, 500 nM of A-1331852 or DMSO was added to their respective conditions. 48 hours after transfection, cells were lifted and run via flow cytometry. The median mCherry to mNeonGreen ratio was computed for transfected cells were gated by BFP expression and mCherry expression. The experiment was then analyzed via one-way ANOVA (n=3 transfected cell populations per condition).
HEK293FT cells were co-transfected with the 4×UAG MS2 reporter and either an MCP-ADAR containing a peptide insertion at the 5′ RNA binding site (see e.g., FIG. 34b, Pep), grazoprevir iADAR (Pep-NS3) or a mutant version of the iADAR (Pep-NS3 (K690R)). At the time of transfection, 3 μM of DMSO or grazoprevir was added. 48 hours after transfection, cells were lifted and run via flow cytometry. […] The experiment was then analyzed via two-way ANOVA (n=3 transfected cell populations per condition).
To test this, LINC-ADAR constructs were created with WT, L699G, or F697Y mutations (see e.g., FIG. 35b) and HEK293FT cells were co-transfected with them and the 4×UAG-MS2 reporter in the presence of 2 μM grazoprevir or DMSO vehicle. 48 hours after transfection and drug treatment, cells were lifted and analyzed by flow cytometry. […]

ALFA epitope tag, SRLEEELRRRLTE, SEQ ID NO: 85
reported interaction strength with AlfaNb [1]: picomolar

Cc1c(-c2ccc(N3CCc4cccc(C(=O)Nc5nc6ccccc6s5)c4C3)nc2C(=O)O)cnn1CC12CC3CC(CC(C3)C1)C2 [A-1331852]
concentration at which activation maxed out ([2]; flow cytometry 48 hours): ~30 nM | concentration at which the iADAR activated (as low as) ([2]; flow cytometry 48 hours after transfection, n=3): 1 nM

lower affinity ALFA epitope variant, GRLEEELRRRLSP, SEQ ID NO: 86 [ALFA-PE]
reported interaction strength with AlfaNb [1]: nanomolar

MCP-linker-ADAR2(E396A & E488Q)-TagBFP [MCP-dADAR]
effect on translational efficiency from a native AUG start codon, MS2-A substrate [3]: more modest negative effect on translational efficiency | relative fluorescence (EGFPd2-to-dTomato) of MS2-C reporters compared with filler DNA (NT) ([3]; 2-Way ANOVA): significantly decreased the relative fluorescence | HA tag staining of cells with AUA construct ([4]; fixed, permeabilized, anti-HA and AF647 secondary): not much staining | cellular distribution of GFP from AUA-SS-GFP-GPI, live imaging ([4]; one day after transfection): more cytoplasmic distribution | mNeonGreen expression, fluorescence microscopy [5]: minimal mNeonGreen fluorescence | Fold Change ([6]; 1 μM vs 0 μM A-1331852, flow cytometry): 0.9649 | Flow Cytometry Values, 0 μM (median of the ratio of mNeonGreen to mCherry) ([6]; HEK cells co-transfected with ADAR reporter and ADAR variant, 0 μM A-1331852, two days after transfection, gated by BFP): 0.0049 | Flow Cytometry Values, 1 μM (median of the ratio of mNeonGreen to mCherry) ([6]; HEK cells co-transfected with ADAR reporter and ADAR variant, 1 μM A-1331852, two days after transfection, gated by BFP): 0.0047 | translational efficiency, MS2-A based AUG construct [7]: significant decrease in translational efficiency

B1: dual-input iADAR: N-terminal BAD, ALFA-PE at 5' RNA binding site, ADAR2-DD (F697Y), tandem AlfaNb and Bcl-xL at C-terminus (protein)
chain: MASNFTQFVLVDNGGTGDVTVAPSNFANGIAEWISSNSRSQAYKVTCSVRQSSAQNRKYTIKVEVPKGAWRSYLNMELTIPIFATNSDCELIVKAMQGLLKDGNPIPSAIAANSGIYGGSGSGAGSGSPAGGGAPGSGGGSTGAPPNLWAAQRYGRELRRMSDEFVDSFKKASQLHLPQVLADAVSRLVLGKFGDLTDNFSSPHARRKVLAGVVMTTGTDVKDAKVISVSTGTKCINGEYMSDRGLALNDCHAEIISRRSLLRFLYTQLELYLNNKDDQKRSIFQKSERGGFRLKENVQFHLYISTSPCGDARIFSPHEPILEEPAASGSGPGRLEEELRRRLSPGTGDRHPNRKARGQLRTKIESGQGTIPVRSNASIQTWDGVLQGERLLTMSCSDKIARWNVVGIQGSLLSIFVEPIYFSSIILGSLYHGDHLSRAMYQRISNIEDLPPLYTLNKPLLSGISNAEARQPGKAPNFSVNWTVGDSAIEVINATTGKDELGRASRLCKHALYCRWMRVHGKVPSHLLRSKITKPNVYHESKLAAKEYQAAKARLFTAFIKAGLGAWVEKPTEQDQYSLTGSGGTAEVQLQESGGGLVQPGGSLRLSCTASGVTISALNAMAMGWYRQAPGERRVMVAAVSERGNAMYRESVQGRFTVTRDFTNKMVSLQMDNLKPEDTAVYYCHVLEDRVDSFHDYWGQGTQVTVSSGAGSGASSNRELVVDFLSYKLSQKGYSWSQFSDVEENRTEAPEGTESEMETPSAINGNPSWHLADSPAVNGATGHSSSLDAREVIPMAAVKQALREAGDEFELRYRRAFSDLTSQLHITPGTAYQSFEQVVNELFRDGVNWGRIVAFFSFGGALCVESVDKEMQVLVSRIAAWMATYLNDHLEPWIQENGGWDTFVELYGNNGSSELIKENMHMKLYMEGTVDNHHFKCTSEGEGKPYEGTQTMRIKVVEGGPLPFAFDILATSFLYGSKTFINHTQGIPDFFKQSFPEGFTWERVTTYEDGGVLTATQDTSLQDGCLIYNVKIRGVNFTSNGPVMQKKTLGWEAFTETLYPADGGLEGRNDMALKLVGGSHLIANIKTTYRSKKPAKNLKMPGVYYVDYRLERIKEANNETYVEQHEVAVARYCDLPSKLGHKLN
median relative fluorescence with both A-1331852 and EGFP(R96M)-AlfaTag, fold greater than AlfaTag alone ([8]; 500 nM of A-1331852): ~4.6 × | median relative fluorescence with AlfaTag and DMSO vs negative condition or A-1331852 treatment ([8]; one-way ANOVA): significantly higher
